Experimental data as given in patent publication US20260035389A1, “TETRAHYDROPYRIDOPYRIMIDINE PAN-KRAS INHIBITORS” (Mirati Therapeutics, Inc., priority 2020, published 2026).

Legend:
[1] = target: KRas^G12V (Homo sapiens, UniProt P01116, G12V); assay: KRas binding assay (TR-FRET displacement)
[2] = target: KRas^Q61H (Homo sapiens, UniProt P01116, Q61H); assay: biochemical
[3] = system: ASPC1 cells; assay: Cisbio HTRF Advanced pERK assay; type: cell-based; conditions: AsPC-1 cells, 3 hrs, read-out: Inhibition (HTRF IC50 nM) of KRas-mediated Phosphorylation of ERK, AsPC-1
[4] = system: H727 cells; assay: Cisbio HTRF Advanced pERK assay; type: cell-based; conditions: 3 hrs, read-out: Inhibition (HTRF IC50 nM) of KRas-mediated Phosphorylation of ERK, H727
[5] = system: PSN1 cells; assay: Cisbio HTRF Advanced pERK assay; type: cell-based; conditions: 3 hour, read-out: Inhibition (HTRF IC50 nM) of KRas-mediated Phosphorylation of ERK, PSN1
Procedure: (§1) Cisbio HTRF Advanced pERK Assay Catalog #64AERPEH • Cells: MKN1, PSN1 • Procedure: • Day 1: Seed 6,000 cells/well −25 μl/well in 384-well white solid bottom plate; RPM1_10% FBS.

[6] = system: MKN1 cells; assay: Cisbio HTRF Advanced pERK assay; type: cell-based; conditions: 3 hour, read-out: Inhibition (HTRF IC50 nM) of KRas-mediated Phosphorylation of ERK, MKN1
Procedure: as §1

[7] = target: KRas^G13D (Homo sapiens, UniProt P01116, G13D); assay: biochemical
[8] = target: KRas^G12R (Homo sapiens, UniProt P01116, G12R); assay: KRas binding assay (TR-FRET displacement)
Sequence of KRas^G12R (P01116 1-169 isoform P01116-2 G12R): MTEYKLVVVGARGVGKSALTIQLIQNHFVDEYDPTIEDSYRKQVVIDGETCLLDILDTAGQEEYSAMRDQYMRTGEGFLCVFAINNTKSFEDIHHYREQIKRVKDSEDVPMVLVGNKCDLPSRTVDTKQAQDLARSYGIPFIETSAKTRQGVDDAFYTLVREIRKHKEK

Sequence of KRas^G12V (P01116 1-169 isoform P01116-2 G12V): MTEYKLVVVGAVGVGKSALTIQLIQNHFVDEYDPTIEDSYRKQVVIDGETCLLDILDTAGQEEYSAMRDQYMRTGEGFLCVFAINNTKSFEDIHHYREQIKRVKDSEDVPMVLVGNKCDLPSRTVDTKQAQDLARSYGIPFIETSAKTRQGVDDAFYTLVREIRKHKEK
Sequence of KRas^G13D (P01116 1-169 isoform P01116-2 G13D): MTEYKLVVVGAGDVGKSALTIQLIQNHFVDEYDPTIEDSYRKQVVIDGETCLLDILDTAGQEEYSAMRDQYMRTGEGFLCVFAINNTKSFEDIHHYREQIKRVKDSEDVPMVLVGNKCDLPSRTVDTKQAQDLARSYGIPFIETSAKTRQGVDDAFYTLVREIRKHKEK
Sequence of KRas^Q61H (P01116 1-169 isoform P01116-2 Q61H): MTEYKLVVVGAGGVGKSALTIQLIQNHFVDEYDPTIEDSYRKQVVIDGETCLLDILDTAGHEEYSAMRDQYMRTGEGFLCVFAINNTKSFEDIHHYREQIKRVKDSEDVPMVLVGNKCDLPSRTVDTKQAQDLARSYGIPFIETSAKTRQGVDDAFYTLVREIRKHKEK

| IC50 [1] [nM] | IC50 [3] [nM] | IC50 [4] [nM] | IC50 [6] [nM] | SMILES | further results |
| --- | --- | --- | --- | --- | --- |
| ≤ 2 | – | – | – | CCc1c(F)ccc2cc(O)cc(N3CCc4c(nc(OC[C@@]56CCCN5C[C@H](F)C6)nc4N4CCCn5nc(C(=O)N(C)C)c(C)c5C4)C3)c12 [Example 189, 5-(7-(8-ethyl-7-fluoro-3-hydroxynaphthalen-1-yl)-2-(((2R,7aS)-2-fluorotetrahydro-1H-pyrrolizin-7a(5H)-yl)methoxy)-5,6,7,8-tetrahydropyrido[3,4-d]pyrimidin-4-yl)-N,N,3-trimethyl-5,6,7,8-tetrahydro-4H-pyrazolo[1,5-a][1,4]diazepine-2-carboxamide] | – |
| ≤ 2 | – | – | – | CCc1c(F)ccc2cc(O)cc(N3CCc4c(nc(OCC5(CN(C)C)CC5)nc4N4CCCn5nc(C(=O)N(C)C)cc5C4)C3)c12 [Example 203, 5-(2-((1-((dimethylamino)methyl)cyclopropyl)methoxy)-7-(8-ethyl-7-fluoro-3-hydroxynaphthalen-1-yl)-5,6,7,8-tetrahydropyrido[3,4-d]pyrimidin-4-yl)-N,N-dimethyl-5,6,7,8-tetrahydro-4H-pyrazolo[1,5-a][1,4]diazepine-2-carboxamide] | – |
| – | – | – | – | CCc1cccc2cccc(N3CCc4c(nc(OCC56CCCN5CCC6)nc4N4CCCC(P(C)(C)=O)C4)C3)c12 (stereo not shown) [Example 112, (1-(7-(8-ethylnaphthalen-1-yl)-2-((tetrahydro-1H-pyrrolizin-7a(5H)-yl)methoxy)-5,6,7,8-tetrahydropyrido[3,4-d]pyrimidin-4-yl)piperidin-3-yl)dimethylphosphine oxide] | IC50 [2]: 647 nM |
| – | ≥ 10000 | 7430 | 1700 | Oc1cc(N2CCc3c(nc(OC[C@@]45CCCN4C[C@H](F)C5)nc3N3CC4CC(O)CC3C4)C2)c2c(Br)c(F)ccc2c1 (single isomer, unassigned) [Example 214] | IC50 [5]: ≥ 10000 nM |
| – | 2070 | 1780 | 468 | Oc1cc(N2CCc3c(nc(OC[C@@]45CCCN4C[C@H](F)C5)nc3N3CC4CC(O)CC3C4)C2)c2c(Cl)c(F)ccc2c1 (single isomer, unassigned) [Example 76] | – |
| – | 1740 | 1170 | 148 | Oc1cc(N2CCc3c(nc(OC[C@@]45CCCN4C[C@H](F)C5)nc3N3CC4CC(O)CC3C4)C2)c2c(Br)c(F)ccc2c1 (single isomer, unassigned) [Example 213] | – |
| ≤ 2 | – | – | – | O=C1NC(=O)C2(CCCN(c3nc(OC[C@@]45CCCN4C[C@H](F)C5)nc4c3CCN(c3cc(O)cc5ccc(F)c(Cl)c35)C4)C2)N1 (stereo partly drawn) [Example 69, 7-(7-(8-chloro-7-fluoro-3-hydroxynaphthalen-1-yl)-2-(((2R,7aS)-2-fluorohexahydro-1H-pyrrolizin-7a-yl)methoxy)-5,6,7,8-tetrahydropyrido[3,4-d]pyrimidin-4-yl)-1,3,7-triazaspiro[4.5]decane-2,4-dione] | – |
| ≤ 2 | – | – | – | CCc1c(F)ccc2cc(O)cc(N3CCc4c(nc(OC[C@@]56CCCN5C[C@H](F)C6)nc4N4CC5CC(O)CC4C5)C3)c12 (stereo partly drawn) [Example 35, 6-(7-(8-ethyl-7-fluoro-3-hydroxynaphthalen-1-yl)-2-(((2R,7aS)-2-fluorohexahydro-1H-pyrrolizin-7a-yl)methoxy)-5,6,7,8-tetrahydropyrido[3,4-d]pyrimidin-4-yl)-6-azabicyclo[3.2.1]octan-3-ol] | – |
| – | – | – | – | CCc1c(F)ccc2cc(O)cc(N3CCc4c(nc(OC[C@@]56CCCN5C[C@H](F)C6)nc4N4CCC[C@@](C)(O)C4)C3)c12 [Example 2, (R)-1-(7-(8-ethyl-7-fluoro-3-hydroxynaphthalen-1-yl)-2-(((2R,7aS)-2-fluorohexahydro-1H-pyrrolizin-7a-yl)methoxy)-5,6,7,8-tetrahydropyrido[3,4-d]pyrimidin-4-yl)-3-methylpiperidin-3-ol] | IC50 [7]: ≤ 2 nM |
| – | – | – | – | CCc1c(F)ccc2cc(O)cc(N3CCc4c(nc(OC[C@@]56CCCN5C[C@H](F)C6)nc4N4CCOCC(C)(O)C4)C3)c12 (stereo partly drawn) [Example 20, 4-(7-(8-ethyl-7-fluoro-3-hydroxynaphthalen-1-yl)-2-(((2R,7aS)-2-fluorohexahydro-1H-pyrrolizin-7a-yl)methoxy)-5,6,7,8-tetrahydropyrido[3,4-d]pyrimidin-4-yl)-6-methyl-1,4-oxazepan-6-ol] | IC50 [8]: ≤ 2 nM |
| – | 9110 | 8300 | 2660 | Oc1cc(N2CCc3c(nc(OC[C@@]45CCCN4C[C@H](F)C5)nc3N3CC4CC(O)CC3C4)C2)c2c(Cl)c(F)ccc2c1 (single isomer, unassigned) [Example 77] | IC50 [5]: ≥ 10000 nM |
| ≤ 2 | – | – | – | CCc1c(F)ccc2cc(O)cc(N3CCc4c(nc(OC[C@@]56CCCN5C[C@H](F)C6)nc4N4CCCn5nc(C(=O)N6CCCC6)cc5C4)C3)c12 [Example 191, (5-(7-(8-ethyl-7-fluoro-3-hydroxynaphthalen-1-yl)-2-(((2R,7aS)-2-fluorotetrahydro-1H-pyrrolizin-7a(5H)-yl)methoxy)-5,6,7,8-tetrahydropyrido[3,4-d]pyrimidin-4-yl)-5,6,7,8-tetrahydro-4H-pyrazolo[1,5-a][1,4]diazepin-2-yl)(pyrrolidin-1-yl)methanone] | – |
